In publication PMC9898036, “VIP152 is a selective CDK9 inhibitor with pre-clinical in vitro and in vivo efficacy in chronic lymphocytic leukemia” (Leukemia, 2022):

Assays:
Assay in all cases: DiscoverX KINOMEscan kinase profiling (468 assays)
Assay type in all cases: binding
human kinome [1] = biological target: human kinome (Homo sapiens, UniProt P09769); details: FGR; 100 nM; read-out: Percent Control
In short: (§1)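 VIP152 was run in DMSO, alongside a DMSO control. Readout was qPCR of DNA-tagged kinase still bound to bead-immobilized biotinylated kinase ligands after compound competition.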

human kinome [2] = biological target: human kinome (Homo sapiens, UniProt Q9UHD2); details: kinase TBK1 (Entrez TBK1); compound concentration 1000 nM; read-out: Percent Control
In short: as §1

human kinome [3] = biological target: human kinome (Homo sapiens, UniProt Q13705); details: ACVR2B; 100 nM; read-out: Percent Control
In short: as §1

human kinome [4] = biological target: human kinome (Homo sapiens, UniProt P07332); details: FES; 100 nM; read-out: Percent Control
In short: as §1

human kinome [5] = biological target: human kinome (Homo sapiens, UniProt Q9Y6R4); details: MAP3K4; 100 nM; read-out: Percent Control
In short: as §1

human kinome [6] = biological target: human kinome (Homo sapiens, UniProt P42681); details: kinase TXK (Entrez TXK); compound concentration 1000 nM; read-out: Percent Control
In short: as §1

human kinome [7] = biological target: human kinome (Homo sapiens, UniProt P53778); details: read-out: Percent Control
human kinome (Homo sapiens, UniProt P53778), sequence (P53778 whole entry): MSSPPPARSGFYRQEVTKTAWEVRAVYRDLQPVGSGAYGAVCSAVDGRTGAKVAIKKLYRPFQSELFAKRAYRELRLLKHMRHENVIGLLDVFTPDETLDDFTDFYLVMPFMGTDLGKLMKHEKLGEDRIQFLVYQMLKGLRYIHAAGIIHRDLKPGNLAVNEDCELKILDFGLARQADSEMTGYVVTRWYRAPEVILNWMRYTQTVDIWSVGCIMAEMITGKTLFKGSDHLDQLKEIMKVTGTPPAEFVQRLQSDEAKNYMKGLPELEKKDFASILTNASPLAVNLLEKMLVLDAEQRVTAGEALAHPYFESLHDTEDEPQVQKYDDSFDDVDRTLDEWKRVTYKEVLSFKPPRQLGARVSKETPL
In short: as §1

human kinome [8] = biological target: human kinome (Homo sapiens, UniProt P37173); details: kinase TGFBR2 (Entrez TGFBR2); compound concentration 1000 nM; read-out: Percent Control
In short: as §1

human kinome [9] = biological target: human kinome (Homo sapiens, UniProt P42336, E542K); details: read-out: Percent Control
human kinome (Homo sapiens, UniProt P42336, E542K), sequence (P42336 whole entry E542K): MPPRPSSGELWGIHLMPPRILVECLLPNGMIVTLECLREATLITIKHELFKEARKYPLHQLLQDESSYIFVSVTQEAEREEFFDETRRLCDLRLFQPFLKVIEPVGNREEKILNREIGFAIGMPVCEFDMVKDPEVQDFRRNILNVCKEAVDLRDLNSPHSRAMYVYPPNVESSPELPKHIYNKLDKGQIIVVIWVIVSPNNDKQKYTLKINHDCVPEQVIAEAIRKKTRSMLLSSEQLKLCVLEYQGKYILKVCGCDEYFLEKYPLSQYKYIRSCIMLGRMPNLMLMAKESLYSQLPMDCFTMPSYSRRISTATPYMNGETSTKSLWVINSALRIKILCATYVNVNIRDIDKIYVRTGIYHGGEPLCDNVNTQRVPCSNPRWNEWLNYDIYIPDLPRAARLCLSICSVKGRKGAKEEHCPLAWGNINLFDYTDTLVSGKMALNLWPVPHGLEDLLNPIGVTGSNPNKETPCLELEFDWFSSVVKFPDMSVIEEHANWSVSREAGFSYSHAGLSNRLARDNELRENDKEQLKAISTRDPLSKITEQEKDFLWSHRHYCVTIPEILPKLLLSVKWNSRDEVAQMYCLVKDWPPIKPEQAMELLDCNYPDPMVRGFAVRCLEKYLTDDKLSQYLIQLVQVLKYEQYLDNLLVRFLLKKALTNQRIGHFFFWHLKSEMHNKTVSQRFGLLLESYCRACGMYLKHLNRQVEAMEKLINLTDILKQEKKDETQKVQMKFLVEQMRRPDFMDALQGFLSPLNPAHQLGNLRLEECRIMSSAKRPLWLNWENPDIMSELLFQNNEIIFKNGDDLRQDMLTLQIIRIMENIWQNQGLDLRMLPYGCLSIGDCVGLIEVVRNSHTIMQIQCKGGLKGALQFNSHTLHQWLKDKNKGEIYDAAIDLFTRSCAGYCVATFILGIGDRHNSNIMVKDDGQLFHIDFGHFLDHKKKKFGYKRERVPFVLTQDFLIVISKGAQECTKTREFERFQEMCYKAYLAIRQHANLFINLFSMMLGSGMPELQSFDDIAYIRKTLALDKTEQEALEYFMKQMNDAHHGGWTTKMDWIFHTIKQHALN
In short: as §1

human kinome [10] = biological target: human kinome (Homo sapiens, UniProt Q6P3R8); details: read-out: Percent Control
human kinome (Homo sapiens, UniProt Q6P3R8), sequence (Q6P3R8 whole entry): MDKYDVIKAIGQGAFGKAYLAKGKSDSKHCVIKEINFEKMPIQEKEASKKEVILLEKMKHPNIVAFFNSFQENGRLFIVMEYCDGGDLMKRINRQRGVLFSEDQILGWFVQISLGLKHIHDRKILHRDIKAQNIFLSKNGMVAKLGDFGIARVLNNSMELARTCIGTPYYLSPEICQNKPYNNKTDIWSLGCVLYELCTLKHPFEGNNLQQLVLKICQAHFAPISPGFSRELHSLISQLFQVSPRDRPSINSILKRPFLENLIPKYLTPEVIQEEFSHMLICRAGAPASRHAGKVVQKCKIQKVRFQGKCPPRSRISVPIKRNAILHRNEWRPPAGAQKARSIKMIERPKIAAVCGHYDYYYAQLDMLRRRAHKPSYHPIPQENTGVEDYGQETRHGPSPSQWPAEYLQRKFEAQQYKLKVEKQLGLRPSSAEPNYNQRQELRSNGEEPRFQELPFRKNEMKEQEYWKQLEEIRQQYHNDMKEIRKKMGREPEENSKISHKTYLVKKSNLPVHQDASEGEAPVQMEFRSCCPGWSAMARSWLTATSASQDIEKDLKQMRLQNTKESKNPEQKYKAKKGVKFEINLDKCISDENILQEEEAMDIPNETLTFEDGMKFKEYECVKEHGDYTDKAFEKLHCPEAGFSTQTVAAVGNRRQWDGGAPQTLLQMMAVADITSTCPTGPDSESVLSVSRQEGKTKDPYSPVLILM
In short: as §1

human kinome [11] = biological target: human kinome (Homo sapiens, UniProt Q9UPZ9); details: ICK; 100 nM; read-out: Percent Control
In short: as §1

human kinome [12] = biological target: human kinome (Homo sapiens, UniProt Q5S007); details: LRRK2; 100 nM; read-out: Percent Control
In short: as §1

human kinome [13] = biological target: human kinome (Homo sapiens, UniProt Q16512); details: read-out: Percent Control
human kinome (Homo sapiens, UniProt Q16512), sequence (Q16512 whole entry): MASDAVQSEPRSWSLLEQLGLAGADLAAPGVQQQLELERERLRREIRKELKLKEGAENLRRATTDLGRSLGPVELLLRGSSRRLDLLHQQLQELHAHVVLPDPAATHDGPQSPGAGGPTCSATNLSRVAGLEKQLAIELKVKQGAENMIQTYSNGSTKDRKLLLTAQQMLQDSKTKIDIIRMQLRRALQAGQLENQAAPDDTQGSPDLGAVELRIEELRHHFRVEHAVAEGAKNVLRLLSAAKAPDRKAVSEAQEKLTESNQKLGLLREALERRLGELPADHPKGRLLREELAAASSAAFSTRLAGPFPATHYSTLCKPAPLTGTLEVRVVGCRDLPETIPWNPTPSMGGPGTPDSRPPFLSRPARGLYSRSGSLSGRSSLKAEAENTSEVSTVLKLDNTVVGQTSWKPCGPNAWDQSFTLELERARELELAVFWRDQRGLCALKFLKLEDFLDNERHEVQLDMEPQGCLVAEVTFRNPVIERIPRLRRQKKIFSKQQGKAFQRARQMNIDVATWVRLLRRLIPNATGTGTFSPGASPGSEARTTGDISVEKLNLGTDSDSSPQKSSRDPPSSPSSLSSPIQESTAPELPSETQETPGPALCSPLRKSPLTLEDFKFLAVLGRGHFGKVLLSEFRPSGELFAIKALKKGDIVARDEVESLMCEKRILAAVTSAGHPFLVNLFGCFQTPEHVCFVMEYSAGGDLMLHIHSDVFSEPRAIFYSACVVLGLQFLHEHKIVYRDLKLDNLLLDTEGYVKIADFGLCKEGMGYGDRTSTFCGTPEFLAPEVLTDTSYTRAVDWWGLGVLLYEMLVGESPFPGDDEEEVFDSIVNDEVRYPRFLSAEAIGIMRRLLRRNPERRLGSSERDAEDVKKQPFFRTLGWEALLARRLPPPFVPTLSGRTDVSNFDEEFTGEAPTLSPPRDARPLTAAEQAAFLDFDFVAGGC
In short: as §1

human kinome [14] = biological target: human kinome (Homo sapiens, UniProt P45983); details: JNK1 (Entrez MAPK8); 100 nM; read-out: Percent Control
In short: as §1

human kinome [15] = biological target: human kinome (Homo sapiens, UniProt P10721, L576P); details: KIT(L576P); 100 nM; read-out: Percent Control
In short: as §1

human kinome [16] = biological target: human kinome (Homo sapiens, UniProt Q8TBX8); details: read-out: Percent Control
human kinome (Homo sapiens, UniProt Q8TBX8), sequence (Q8TBX8 whole entry): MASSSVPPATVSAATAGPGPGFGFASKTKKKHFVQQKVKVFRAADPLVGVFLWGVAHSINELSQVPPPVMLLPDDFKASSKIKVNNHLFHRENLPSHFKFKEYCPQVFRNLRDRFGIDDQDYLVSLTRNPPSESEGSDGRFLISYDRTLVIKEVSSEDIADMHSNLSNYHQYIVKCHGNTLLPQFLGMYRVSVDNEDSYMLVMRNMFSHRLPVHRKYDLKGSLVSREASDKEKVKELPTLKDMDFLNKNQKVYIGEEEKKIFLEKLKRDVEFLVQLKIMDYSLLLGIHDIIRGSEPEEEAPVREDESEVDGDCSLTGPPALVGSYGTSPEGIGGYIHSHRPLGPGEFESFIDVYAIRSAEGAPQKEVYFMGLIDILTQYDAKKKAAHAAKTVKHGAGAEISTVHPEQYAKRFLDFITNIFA
In short: as §1

human kinome [17] = biological target: human kinome (Homo sapiens, UniProt P28482); details: ERK2 (Entrez MAPK1); 100 nM; read-out: Percent Control
In short: as §1

human kinome [18] = biological target: human kinome (Homo sapiens, UniProt P14616); details: INSRR; 100 nM; read-out: Percent Control
In short: as §1

human kinome [19] = biological target: human kinome (Homo sapiens, UniProt Q13557); details: CAMK2D; 100 nM; read-out: Percent Control
In short: as §1

human kinome [20] = biological target: human kinome (Homo sapiens, UniProt P36897); details: kinase TGFBR1 (Entrez TGFBR1); compound concentration 1000 nM; read-out: Percent Control
In short: as §1

human kinome [21] = biological target: human kinome (Homo sapiens, UniProt O95819); details: MAP4K4; 100 nM; read-out: Percent Control
In short: as §1

human kinome [22] = biological target: human kinome (Homo sapiens, UniProt P78356); details: read-out: Percent Control
human kinome (Homo sapiens, UniProt P78356), sequence (P78356 whole entry): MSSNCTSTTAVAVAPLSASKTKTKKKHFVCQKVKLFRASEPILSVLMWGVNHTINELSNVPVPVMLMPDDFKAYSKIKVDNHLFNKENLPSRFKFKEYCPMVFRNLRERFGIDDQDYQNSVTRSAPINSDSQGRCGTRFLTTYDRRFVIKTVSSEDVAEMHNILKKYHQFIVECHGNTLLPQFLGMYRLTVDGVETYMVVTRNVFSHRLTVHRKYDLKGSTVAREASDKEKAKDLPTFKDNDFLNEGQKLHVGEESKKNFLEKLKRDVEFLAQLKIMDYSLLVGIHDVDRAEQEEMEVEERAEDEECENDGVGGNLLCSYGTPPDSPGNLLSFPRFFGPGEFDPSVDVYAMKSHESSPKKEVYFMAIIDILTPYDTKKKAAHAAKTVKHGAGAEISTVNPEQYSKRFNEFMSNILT
In short: as §1

human kinome [23] = biological target: human kinome (Homo sapiens, UniProt P11362); details: FGFR1; 100 nM; read-out: Percent Control
In short: as §1

human kinome [24] = biological target: human kinome (Homo sapiens, UniProt P49841); details: GSK3B; 100 nM; read-out: Percent Control
In short: as §1

human kinome [25] = biological target: human kinome (Homo sapiens, UniProt Q13523); details: read-out: Percent Control
human kinome (Homo sapiens, UniProt Q13523), sequence (Q13523 whole entry): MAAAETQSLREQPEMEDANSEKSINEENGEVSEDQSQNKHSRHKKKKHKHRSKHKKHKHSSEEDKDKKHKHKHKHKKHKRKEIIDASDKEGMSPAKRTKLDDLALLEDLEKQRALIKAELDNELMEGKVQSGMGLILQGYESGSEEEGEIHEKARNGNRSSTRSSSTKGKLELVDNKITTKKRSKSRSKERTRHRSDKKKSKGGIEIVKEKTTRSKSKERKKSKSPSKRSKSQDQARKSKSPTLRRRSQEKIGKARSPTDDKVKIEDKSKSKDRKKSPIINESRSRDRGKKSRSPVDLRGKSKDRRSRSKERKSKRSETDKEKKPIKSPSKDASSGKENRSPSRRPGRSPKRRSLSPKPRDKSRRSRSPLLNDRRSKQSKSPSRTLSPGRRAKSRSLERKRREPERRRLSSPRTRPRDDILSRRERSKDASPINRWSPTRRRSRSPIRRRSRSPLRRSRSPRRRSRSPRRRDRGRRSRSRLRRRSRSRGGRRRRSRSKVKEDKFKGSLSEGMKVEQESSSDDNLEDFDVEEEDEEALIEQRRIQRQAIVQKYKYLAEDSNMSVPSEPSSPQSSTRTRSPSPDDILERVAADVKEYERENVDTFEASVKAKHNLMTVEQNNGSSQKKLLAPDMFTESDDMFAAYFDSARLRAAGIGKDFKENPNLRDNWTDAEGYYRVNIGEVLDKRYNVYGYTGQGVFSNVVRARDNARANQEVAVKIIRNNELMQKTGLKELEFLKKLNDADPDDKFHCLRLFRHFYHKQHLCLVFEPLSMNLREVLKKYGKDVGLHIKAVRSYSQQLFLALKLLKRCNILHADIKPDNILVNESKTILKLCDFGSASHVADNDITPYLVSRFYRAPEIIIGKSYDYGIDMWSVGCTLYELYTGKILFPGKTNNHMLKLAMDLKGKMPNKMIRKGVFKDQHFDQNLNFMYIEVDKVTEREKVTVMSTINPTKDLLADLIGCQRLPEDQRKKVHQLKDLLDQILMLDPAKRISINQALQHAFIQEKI
In short: as §1

human kinome [26] = biological target: human kinome (Homo sapiens, UniProt P00533, T790M); details: EGFR(T790M); 100 nM; read-out: Percent Control
In short: as §1

human kinome [27] = biological target: human kinome (Homo sapiens, UniProt Q92630); details: DYRK2; 100 nM; read-out: Percent Control
In short: as §1

human kinome [28] = biological target: human kinome (Homo sapiens, UniProt P29322); details: EPHA8; 100 nM; read-out: Percent Control
In short: as §1

human kinome [29] = biological target: human kinome (Homo sapiens, UniProt P49760); details: CLK2; 100 nM; read-out: Percent Control
In short: as §1

human kinome [30] = biological target: human kinome (Homo sapiens, UniProt P42679); details: CTK (Entrez MATK); 100 nM; read-out: Percent Control
In short: as §1

## COc1cc(F)ccc1-c1cc(Nc2cc(CS(C)(=N)=O)ccn2)ncc1F (stereo not shown) [VIP152]
Human kinome [1]
  remaining binding at 0.1 µM: 100%
Human kinome [2]
  remaining binding at 1 µM: 100%
Human kinome [3]
  remaining binding at 0.1 µM: 89%
Human kinome [4]
  remaining binding at 0.1 µM: 100%
Human kinome [5]
  remaining binding at 0.1 µM: 100%
Human kinome [6]
  remaining binding at 1 µM: 83%
Human kinome [7]; kinase p38-gamma (Entrez MAPK12), compound concentration 1000 nM
  remaining binding at 1 µM: 100%
Human kinome [7]; p38-gamma (Entrez MAPK12), 100 nM
  remaining binding at 0.1 µM: 76%
Human kinome [8]
  remaining binding at 1 µM: 93%
Human kinome [9]; PIK3CA(E542K), 100 nM
  remaining binding at 0.1 µM: 100%
Human kinome [9]; kinase PIK3CA(E542K) (Entrez PIK3CA), compound concentration 1000 nM
  remaining binding at 1 µM: 100%
Human kinome [10]; NEK5, 100 nM
  remaining binding at 0.1 µM: 100%
Human kinome [10]; kinase NEK5 (Entrez NEK5), compound concentration 1000 nM
  remaining binding at 1 µM: 92%
Human kinome [11]
  remaining binding at 0.1 µM: 95%
Human kinome [12]
  remaining binding at 0.1 µM: 100%
Human kinome [13]; PKN1, 100 nM
  remaining binding at 0.1 µM: 100%
Human kinome [13]; kinase PKN1 (Entrez PKN1), compound concentration 1000 nM
  remaining binding at 1 µM: 88%
Human kinome [14]
  remaining binding at 0.1 µM: 98%
Human kinome [15]
  remaining binding at 0.1 µM: 100%
Human kinome [16]; PIP5K2C (Entrez PIP4K2C), 100 nM
  remaining binding at 0.1 µM: 52%
Human kinome [16]; kinase PIP5K2C (Entrez PIP4K2C), compound concentration 1000 nM
  remaining binding at 1 µM: 82%
Human kinome [17]
  remaining binding at 0.1 µM: 100%
Human kinome [18]
  remaining binding at 0.1 µM: 100%
Human kinome [19]
  remaining binding at 0.1 µM: 100%
Human kinome [20]
  remaining binding at 1 µM: 91%
Human kinome [21]
  remaining binding at 0.1 µM: 73%
Human kinome [22]; PIP5K2B (Entrez PIP4K2B), 100 nM
  remaining binding at 0.1 µM: 100%
Human kinome [22]; kinase PIP5K2B (Entrez PIP4K2B), compound concentration 1000 nM
  remaining binding at 1 µM: 100%
Human kinome [23]
  remaining binding at 0.1 µM: 100%
Human kinome [24]
  remaining binding at 0.1 µM: 72%
Human kinome [25]; PRP4 (Entrez PRPF4B), 100 nM
  remaining binding at 0.1 µM: 87%
Human kinome [25]; kinase PRP4 (Entrez PRPF4B), compound concentration 1000 nM
  remaining binding at 1 µM: 71%
Human kinome [26]
  remaining binding at 0.1 µM: 100%
Human kinome [27]
  remaining binding at 0.1 µM: 99%
Human kinome [28]
  remaining binding at 0.1 µM: 100%
Human kinome [29]
  remaining binding at 0.1 µM: 61%
Human kinome [30]
  remaining binding at 0.1 µM: 95%
